The record followed here is ChEMBL document CHEMBL1743141, “Membrane transporters in drug development” (Nat Rev Drug Discov, 2010).

Format in all cases: ADME
Data set [1] has as its target T1, Solute carrier organic anion transporter family member 1A2 (Homo sapiens, UniProt P46721).
T1 sequence (P46721 whole entry): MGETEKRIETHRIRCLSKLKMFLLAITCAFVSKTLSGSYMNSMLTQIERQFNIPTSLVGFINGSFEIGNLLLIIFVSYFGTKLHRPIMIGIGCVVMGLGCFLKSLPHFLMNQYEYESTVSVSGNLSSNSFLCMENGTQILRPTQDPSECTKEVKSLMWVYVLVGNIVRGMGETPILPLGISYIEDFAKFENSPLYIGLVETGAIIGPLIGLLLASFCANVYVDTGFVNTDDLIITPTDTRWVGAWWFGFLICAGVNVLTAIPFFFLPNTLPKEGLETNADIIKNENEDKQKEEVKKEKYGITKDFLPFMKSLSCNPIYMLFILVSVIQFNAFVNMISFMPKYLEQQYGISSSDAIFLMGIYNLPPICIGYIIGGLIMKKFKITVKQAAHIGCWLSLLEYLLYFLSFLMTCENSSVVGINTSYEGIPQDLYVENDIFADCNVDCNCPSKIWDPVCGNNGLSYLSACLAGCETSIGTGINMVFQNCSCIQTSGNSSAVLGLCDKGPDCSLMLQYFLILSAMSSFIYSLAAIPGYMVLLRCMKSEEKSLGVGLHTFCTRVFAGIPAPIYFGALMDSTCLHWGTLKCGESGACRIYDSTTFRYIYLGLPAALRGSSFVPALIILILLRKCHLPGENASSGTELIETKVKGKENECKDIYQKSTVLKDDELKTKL
Kind of data set: Inhibitors of transporters of clinical importance in the absorption and disposition of drugs, OATP1A2.

Data set [2] addresses T2, Solute carrier organic anion transporter family member 1B1 (Homo sapiens, UniProt Q9Y6L6).
T2 sequence (Q9Y6L6 whole entry): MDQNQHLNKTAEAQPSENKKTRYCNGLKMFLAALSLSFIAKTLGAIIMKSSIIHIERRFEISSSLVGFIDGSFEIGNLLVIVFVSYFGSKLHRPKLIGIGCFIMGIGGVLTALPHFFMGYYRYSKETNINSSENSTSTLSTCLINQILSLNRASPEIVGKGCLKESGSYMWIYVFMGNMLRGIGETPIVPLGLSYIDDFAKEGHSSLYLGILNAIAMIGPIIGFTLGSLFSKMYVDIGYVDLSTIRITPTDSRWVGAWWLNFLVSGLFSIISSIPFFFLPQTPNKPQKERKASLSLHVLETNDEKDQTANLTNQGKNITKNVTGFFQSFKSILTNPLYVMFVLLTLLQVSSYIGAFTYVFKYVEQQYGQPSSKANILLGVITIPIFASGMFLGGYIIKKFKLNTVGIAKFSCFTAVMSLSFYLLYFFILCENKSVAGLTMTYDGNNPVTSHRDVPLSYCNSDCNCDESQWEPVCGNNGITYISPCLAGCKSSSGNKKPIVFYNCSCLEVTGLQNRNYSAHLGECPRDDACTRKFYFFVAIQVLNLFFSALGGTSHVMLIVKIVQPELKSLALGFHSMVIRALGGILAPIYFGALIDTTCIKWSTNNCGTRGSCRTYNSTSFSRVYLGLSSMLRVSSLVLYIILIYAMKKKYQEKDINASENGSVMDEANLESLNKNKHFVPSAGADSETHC
In words: Inhibitors of transporters of clinical importance in the absorption and disposition of drugs, OATP1B1.

In data set [3] the target is T3, Solute carrier organic anion transporter family member 1B3 (Homo sapiens, UniProt Q9NPD5).
T3 sequence (Q9NPD5 whole entry): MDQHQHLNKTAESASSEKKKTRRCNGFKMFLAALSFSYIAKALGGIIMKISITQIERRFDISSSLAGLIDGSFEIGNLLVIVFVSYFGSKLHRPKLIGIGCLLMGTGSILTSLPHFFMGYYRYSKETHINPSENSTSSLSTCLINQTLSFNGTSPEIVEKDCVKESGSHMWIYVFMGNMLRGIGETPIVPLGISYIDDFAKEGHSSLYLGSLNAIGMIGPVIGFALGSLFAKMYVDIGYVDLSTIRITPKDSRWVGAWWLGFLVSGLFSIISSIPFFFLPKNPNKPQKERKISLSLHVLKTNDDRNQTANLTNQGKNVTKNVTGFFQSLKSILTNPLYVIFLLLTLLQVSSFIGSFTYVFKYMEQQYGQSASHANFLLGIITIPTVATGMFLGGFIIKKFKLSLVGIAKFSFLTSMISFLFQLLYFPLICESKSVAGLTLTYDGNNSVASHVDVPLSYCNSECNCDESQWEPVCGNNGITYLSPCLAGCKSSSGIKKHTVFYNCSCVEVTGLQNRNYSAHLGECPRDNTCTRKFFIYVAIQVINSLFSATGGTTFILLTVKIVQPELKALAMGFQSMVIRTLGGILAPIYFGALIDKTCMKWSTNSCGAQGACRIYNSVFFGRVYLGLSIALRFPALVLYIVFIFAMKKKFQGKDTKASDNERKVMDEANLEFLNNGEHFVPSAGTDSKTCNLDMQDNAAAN
In words: Substrates of transporters of clinical importance in the absorption and disposition of drugs, OATP1B3.

Data set [4] concerns the target ATP-binding cassette sub-family C member 3 (Homo sapiens, UniProt O15438). Kind of data set: Substrates of transporters of clinical importance in the absorption and disposition of drugs, MPR3.
For data set [5], the target named is T2, Solute carrier organic anion transporter family member 1B1. Kind of data set: Substrates of transporters of clinical importance in the absorption and disposition of drugs, OATP1B1.
Data set [6] addresses T4, Broad substrate specificity ATP-binding cassette transporter ABCG2 (Homo sapiens, UniProt Q9UNQ0).
T4 sequence (Q9UNQ0 whole entry): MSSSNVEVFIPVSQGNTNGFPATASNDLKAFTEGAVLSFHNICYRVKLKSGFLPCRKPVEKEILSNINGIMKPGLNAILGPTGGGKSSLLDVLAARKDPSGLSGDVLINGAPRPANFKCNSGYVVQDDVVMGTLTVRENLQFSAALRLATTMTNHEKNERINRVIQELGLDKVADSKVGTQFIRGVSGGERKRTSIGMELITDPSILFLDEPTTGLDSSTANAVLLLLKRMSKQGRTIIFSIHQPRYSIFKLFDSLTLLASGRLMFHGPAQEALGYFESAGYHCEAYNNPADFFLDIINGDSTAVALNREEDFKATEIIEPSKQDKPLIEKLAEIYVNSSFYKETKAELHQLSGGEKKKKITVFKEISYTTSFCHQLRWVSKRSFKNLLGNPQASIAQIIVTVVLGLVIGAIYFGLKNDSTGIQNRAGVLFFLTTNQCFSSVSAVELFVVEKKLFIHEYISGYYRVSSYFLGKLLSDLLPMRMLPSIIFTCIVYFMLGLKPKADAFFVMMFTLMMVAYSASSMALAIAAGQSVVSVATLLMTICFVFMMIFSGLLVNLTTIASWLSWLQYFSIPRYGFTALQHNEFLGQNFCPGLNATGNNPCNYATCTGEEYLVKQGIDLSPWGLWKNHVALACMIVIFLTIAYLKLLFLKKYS
Kind of data set: Inhibitors of transporters of clinical importance in the absorption and disposition of drugs, BCRP.

The target in data set [7] is T5, Solute carrier organic anion transporter family member 2B1 (Homo sapiens, UniProt O94956).
T5 sequence (O94956 whole entry): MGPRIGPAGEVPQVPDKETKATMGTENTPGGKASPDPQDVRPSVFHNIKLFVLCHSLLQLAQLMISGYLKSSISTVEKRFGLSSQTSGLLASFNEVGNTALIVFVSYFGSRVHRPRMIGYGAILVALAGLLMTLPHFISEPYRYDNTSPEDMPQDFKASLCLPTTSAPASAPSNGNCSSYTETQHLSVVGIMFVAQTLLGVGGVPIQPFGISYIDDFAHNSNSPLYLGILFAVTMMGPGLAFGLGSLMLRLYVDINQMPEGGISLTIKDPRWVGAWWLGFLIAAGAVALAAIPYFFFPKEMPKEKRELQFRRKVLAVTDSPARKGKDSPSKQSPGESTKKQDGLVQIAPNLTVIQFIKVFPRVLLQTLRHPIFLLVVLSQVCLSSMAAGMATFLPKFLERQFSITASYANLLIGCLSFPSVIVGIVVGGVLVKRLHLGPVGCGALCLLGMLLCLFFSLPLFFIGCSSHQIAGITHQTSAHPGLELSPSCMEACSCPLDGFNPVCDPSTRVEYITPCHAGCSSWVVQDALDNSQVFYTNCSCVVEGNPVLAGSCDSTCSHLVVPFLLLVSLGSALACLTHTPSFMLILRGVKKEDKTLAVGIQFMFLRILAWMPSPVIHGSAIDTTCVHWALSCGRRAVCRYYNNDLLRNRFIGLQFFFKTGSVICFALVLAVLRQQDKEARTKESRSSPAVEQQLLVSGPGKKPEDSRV
Kind of data set: Substrates of transporters of clinical importance in the absorption and disposition of drugs, OATP2B1.

The target of data set [8] is T1, Solute carrier organic anion transporter family member 1A2. In words: Substrates of transporters of clinical importance in the absorption and disposition of drugs, OATP1A2.
Data set [9] has as its target ATP-binding cassette sub-family C member 2 (Homo sapiens, UniProt Q92887). In words: Substrates of transporters of clinical importance in the absorption and disposition of drugs, MRP2.
The target in data set [10] is T6, ATP-binding cassette sub-family C member 4 (Homo sapiens, UniProt O15439).
T6 sequence (O15439 whole entry): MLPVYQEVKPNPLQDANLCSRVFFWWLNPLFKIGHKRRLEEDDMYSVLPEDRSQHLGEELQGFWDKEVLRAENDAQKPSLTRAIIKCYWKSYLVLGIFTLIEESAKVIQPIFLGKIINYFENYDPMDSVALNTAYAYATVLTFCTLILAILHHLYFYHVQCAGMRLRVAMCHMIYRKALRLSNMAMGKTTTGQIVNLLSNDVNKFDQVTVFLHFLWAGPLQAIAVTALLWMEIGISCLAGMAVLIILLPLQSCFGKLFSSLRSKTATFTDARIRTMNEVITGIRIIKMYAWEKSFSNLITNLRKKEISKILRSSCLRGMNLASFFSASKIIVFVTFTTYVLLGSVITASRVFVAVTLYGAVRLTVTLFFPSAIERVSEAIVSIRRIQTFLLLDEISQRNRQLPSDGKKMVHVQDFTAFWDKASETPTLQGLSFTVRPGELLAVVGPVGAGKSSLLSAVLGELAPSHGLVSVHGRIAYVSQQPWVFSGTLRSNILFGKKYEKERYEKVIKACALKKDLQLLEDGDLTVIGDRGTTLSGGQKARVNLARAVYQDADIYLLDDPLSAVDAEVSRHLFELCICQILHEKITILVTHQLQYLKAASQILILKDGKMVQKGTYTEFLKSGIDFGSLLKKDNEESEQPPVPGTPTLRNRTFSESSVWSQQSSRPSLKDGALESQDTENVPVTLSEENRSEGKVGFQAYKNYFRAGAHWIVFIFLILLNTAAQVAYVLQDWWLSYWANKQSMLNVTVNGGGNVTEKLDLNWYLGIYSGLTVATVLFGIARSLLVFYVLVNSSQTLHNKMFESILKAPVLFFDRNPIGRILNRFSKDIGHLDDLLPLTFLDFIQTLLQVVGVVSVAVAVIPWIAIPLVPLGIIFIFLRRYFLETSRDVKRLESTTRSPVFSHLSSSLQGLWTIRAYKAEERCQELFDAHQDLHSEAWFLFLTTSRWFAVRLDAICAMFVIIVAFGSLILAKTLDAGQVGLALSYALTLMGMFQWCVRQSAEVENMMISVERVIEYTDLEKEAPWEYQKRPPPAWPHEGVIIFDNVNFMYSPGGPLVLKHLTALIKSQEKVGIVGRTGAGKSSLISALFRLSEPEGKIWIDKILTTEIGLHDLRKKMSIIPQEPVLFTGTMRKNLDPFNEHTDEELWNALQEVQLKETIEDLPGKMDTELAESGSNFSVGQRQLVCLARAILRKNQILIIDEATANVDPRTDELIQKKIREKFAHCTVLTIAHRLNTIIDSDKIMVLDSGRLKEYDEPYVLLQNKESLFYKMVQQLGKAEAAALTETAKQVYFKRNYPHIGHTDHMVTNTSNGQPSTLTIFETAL
In words: Substrates of transporters of clinical importance in the absorption and disposition of drugs, MRP4.

Data set [11] deals with T4, Broad substrate specificity ATP-binding cassette transporter ABCG2. Kind of data set: Substrates of transporters of clinical importance in the absorption and disposition of drugs, BCRP.

ATP-binding cassette sub-family C member 3, sequence (O15438 whole entry): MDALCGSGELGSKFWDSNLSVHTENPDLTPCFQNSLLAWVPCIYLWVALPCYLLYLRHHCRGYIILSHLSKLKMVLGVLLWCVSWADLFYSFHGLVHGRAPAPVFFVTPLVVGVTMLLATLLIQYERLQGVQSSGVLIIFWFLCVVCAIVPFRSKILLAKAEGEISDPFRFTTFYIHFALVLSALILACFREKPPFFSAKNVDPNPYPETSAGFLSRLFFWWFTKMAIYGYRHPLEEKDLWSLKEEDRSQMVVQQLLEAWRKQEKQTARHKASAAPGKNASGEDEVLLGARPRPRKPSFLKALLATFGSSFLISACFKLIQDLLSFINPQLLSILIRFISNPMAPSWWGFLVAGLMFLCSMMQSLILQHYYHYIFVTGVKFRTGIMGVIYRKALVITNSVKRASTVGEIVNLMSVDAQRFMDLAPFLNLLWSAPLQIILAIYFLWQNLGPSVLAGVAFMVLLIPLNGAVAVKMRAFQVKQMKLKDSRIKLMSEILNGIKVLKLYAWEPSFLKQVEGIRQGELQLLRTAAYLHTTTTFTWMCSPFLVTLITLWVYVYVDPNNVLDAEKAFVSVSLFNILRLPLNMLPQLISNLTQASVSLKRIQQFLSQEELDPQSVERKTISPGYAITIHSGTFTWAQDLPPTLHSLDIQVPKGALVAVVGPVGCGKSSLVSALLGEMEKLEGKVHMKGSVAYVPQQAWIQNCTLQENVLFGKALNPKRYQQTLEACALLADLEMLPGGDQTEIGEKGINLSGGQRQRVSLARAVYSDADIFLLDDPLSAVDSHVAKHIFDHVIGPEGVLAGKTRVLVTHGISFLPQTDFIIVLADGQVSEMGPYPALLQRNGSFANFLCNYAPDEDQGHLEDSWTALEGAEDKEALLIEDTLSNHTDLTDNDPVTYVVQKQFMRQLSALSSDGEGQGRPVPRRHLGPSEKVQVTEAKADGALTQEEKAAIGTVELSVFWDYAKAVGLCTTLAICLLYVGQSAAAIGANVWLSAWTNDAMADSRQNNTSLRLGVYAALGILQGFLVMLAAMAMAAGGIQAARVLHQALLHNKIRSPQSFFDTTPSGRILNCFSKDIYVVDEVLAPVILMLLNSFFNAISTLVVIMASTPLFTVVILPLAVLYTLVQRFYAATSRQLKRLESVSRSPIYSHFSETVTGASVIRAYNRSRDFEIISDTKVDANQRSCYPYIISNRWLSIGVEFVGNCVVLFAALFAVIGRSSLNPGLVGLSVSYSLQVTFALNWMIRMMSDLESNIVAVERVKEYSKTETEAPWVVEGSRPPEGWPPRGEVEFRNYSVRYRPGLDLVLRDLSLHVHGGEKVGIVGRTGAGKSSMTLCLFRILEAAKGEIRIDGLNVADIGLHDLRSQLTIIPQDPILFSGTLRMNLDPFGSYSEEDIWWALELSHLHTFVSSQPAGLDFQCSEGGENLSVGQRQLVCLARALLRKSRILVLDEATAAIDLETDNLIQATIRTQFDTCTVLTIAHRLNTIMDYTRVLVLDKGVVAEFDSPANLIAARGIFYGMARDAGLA
ATP-binding cassette sub-family C member 2, sequence (Q92887 whole entry): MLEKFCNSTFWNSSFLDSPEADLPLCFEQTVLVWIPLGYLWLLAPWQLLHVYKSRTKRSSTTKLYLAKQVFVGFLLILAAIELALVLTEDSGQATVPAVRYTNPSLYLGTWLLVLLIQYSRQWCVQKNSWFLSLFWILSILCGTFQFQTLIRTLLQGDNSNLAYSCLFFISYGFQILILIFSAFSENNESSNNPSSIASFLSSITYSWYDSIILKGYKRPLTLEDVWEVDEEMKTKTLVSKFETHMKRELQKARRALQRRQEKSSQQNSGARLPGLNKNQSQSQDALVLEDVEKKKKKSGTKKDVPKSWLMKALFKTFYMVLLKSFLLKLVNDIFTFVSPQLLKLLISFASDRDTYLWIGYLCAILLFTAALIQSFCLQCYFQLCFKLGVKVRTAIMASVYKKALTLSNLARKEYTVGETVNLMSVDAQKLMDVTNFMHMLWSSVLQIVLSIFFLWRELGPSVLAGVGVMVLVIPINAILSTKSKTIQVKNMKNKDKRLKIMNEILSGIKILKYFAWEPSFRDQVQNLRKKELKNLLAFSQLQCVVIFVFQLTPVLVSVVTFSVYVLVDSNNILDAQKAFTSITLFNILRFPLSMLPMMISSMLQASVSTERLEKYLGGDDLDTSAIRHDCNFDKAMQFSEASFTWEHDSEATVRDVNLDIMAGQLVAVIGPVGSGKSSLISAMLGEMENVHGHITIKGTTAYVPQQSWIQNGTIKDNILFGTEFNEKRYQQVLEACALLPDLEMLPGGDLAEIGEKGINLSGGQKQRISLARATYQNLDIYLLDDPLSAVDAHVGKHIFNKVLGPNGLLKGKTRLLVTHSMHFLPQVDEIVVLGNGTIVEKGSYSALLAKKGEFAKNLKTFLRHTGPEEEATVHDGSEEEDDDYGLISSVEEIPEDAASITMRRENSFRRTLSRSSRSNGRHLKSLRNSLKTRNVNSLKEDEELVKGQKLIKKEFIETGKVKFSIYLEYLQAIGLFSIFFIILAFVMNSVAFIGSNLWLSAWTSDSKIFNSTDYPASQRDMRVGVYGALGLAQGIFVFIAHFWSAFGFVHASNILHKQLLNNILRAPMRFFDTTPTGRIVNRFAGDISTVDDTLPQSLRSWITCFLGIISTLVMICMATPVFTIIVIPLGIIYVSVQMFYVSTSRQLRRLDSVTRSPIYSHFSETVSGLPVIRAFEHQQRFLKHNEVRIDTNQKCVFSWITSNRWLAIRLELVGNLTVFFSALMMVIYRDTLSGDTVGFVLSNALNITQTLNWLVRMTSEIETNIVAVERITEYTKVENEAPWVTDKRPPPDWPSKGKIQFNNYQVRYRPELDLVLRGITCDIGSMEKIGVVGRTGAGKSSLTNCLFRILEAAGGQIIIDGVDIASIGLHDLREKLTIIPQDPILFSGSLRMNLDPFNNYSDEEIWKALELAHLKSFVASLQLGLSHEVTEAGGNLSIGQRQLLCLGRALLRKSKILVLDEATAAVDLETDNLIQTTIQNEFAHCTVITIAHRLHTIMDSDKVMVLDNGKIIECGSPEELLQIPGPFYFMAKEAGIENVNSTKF

With `CC(C)(C)NC(=O)[C@@H]1C[C@@H]2CCCC[C@@H]2CN1C[C@@H](O)[C@H](Cc1ccccc1)NC(=O)[C@H](CC(N)=O)NC(=O)c1ccc2ccccc2n1`, the Activity result in data set [1] and in [2] was “transporter inhibitor” throughout.

With `C[C@]12CC[C@@H]3c4ccc(O)cc4CC[C@H]3[C@@H]1CC[C@@H]2O[C@@H]1O[C@H](C(=O)O)[C@@H](O)[C@H](O)[C@H]1O` [ESTRADIOL 17B GLUCURONIDE], the Activity result in data set [3], in [4] and in [5] was “transporter substrate” throughout.

Regarding `C[C@]12CC[C@@H]3c4ccc(O)cc4CC[C@H]3[C@@H]1CC[C@@H]2O` [ESTRADIOL], the Activity result in [6] is “transporter inhibitor”.

On to `C[C@]12CC[C@@H]3c4ccc(O)cc4CC[C@H]3[C@@H]1CCC2=O` [ESTRONE], for which, in data set [6], the Activity entry is listed as “transporter inhibitor”.

In the case of `CC(C)(C(=O)O)c1ccc(C(O)CCCN2CCC(C(O)(c3ccccc3)c3ccccc3)CC2)cc1` (configuration not stated) [FEXOFENADINE], the Activity entry in data set [3], in data set [4], in data set [7] and in data set [8] was “transporter substrate” in each case.

In the case of `COc1ccc2c3c([nH]c2c1)[C@H](C=C(C)C)N1C(=O)[C@@H]2CCCN2C(=O)[C@@H]1C3` [FUMITREMORGIN], the Activity entry in data set [6] is reported as “transporter inhibitor”.

`CN(Cc1cnc2nc(N)nc(N)c2n1)c1ccc(C(=O)N[C@@H](CCC(=O)O)C(=O)O)cc1` [METHOTREXATE]: the Activity result in data set [9], in [10], in data set [4], in data set [8] and in data set [11] was “transporter substrate” each time.
